According to patent US5342851A, “Substituted thiazole derivatives useful as platelet aggregation inhibitors” (McNeil-PPC, Inc., priority 1992, dated 1994):
Structures can show the parent of a compound that is named as a salt.

Test system: platelets (gel-filtered platelet rich plasma)
Assay: Platelet Aggregation Inhibition Activity (agonist thrombin or ADP, light transmission)
Format: cell-based
Conditions: Homo sapiens, @ 20 μM, thrombin or ADP agonist, read-out: Aggregation (percentage increase in light transmission)
Experimental: The percentage of platelet aggregation is calculated as an increase in light transmission of drug treated platelet concentrate versus control treated platelet concentrate. Blood is obtained from drug free, normal donors into tubes containing 0.13M sodium citrate (two sources are routinely used: platelet concentrate obtained from Biological Specialty Corp., Lansdale, Pa. or whole blood obtained from donors). Platelet rich plasma (PRP) is collected by centrifugation of the concentrate or whole blood at 130×g for 15 minutes at 25° C. The PRP (5 mL) is gel filtered through Sepharose 2B (bed volume 50 mL), and the platelet count is adjusted to 2×10^7 platelets per sample. The following constituents are added to a siliconized cuvette: 250 μL of the concentrated platelet filtrate, 100 μL of Tyrode's buffer (0.14M NaCl, 0.0027M KCl, 0.012M NaHCO3, 0.76 mM Na2 HPO4, 0.0055M glucose and 2 mg/mL BSA pH 7.4), 50 μL of 2 mM calcium and test drug (50 mL).
Aggregation is monitored in a dual channel Chrono-log Aggregometer for three minutes following the addition of agonist (thrombin 50 μL of 1 unit/mL, or ADP 50 μL of 100 μM). The final assay volume is 500 μL. The reaction takes place at 37° C. The peak aggregation response is calculated as the increase in light transmission units over a three minute period. The difference of the increase in light transmission between control and drug treated platelets is then expressed as a percent of the nondrug treated controls. […] A percentage increase in light transmission indicates platelet aggregation inhibition activity for the tested compound.

SMILES | inhibition at 20 µM
CCN(CC)CCNC(=O)c1ccc(-c2csc(-c3ccc(C(C)(C)C)cc3)n2)cc1 [Example 181] | 85%
COc1ccc(-c2nc(-c3ccc(C(=O)NCCCN(C)C)cc3)cs2)cc1 [Example 187] | 89%

Same assay, conditions: read-out: Aggregation (IC50, concentration at which the increase in light transmission equals 50%), thrombin or ADP agonist, 37° C., three minutes

IC50 | SMILES
75 µM | CCN(CC)CCNC(=O)c1cnn(-c2nc(-c3ccc([N+](=O)[O-])cc3)cs2)c1C(F)(F)F [Example 35]
30 µM | O=C(NCCN1CCCC1)c1cnn(-c2nc(-c3cccc(C(F)(F)F)c3)cs2)c1C(F)(F)F [Example 51]
10 µM | CC1CCCCN1CCCNC(=O)c1cnn(-c2nc(-c3cccc(C(F)(F)F)c3)cs2)c1C(F)(F)F (stereo not shown) [Example 54]
30 µM | Cc1cccc(-c2csc(-n3ncc(C(=O)NCCN4CCCCC4)c3C(F)(F)F)n2)c1 [Example 55]
10 µM | Cc1ccc(-c2csc(-n3ncc(C(=O)NCCCN4CCCCC4)c3C(F)(F)F)n2)cc1 [Example 92]
30 µM | Cc1ccc(-c2csc(-n3ncc(C(=O)NCCCN4CCCC4)c3C(F)(F)F)n2)cc1 [Example 93]
40 µM | O=C(NCCCN1CCCCC1)c1cnn(-c2nc(-c3ccccc3)cs2)c1C(F)(F)F [Example 94]
10 µM | O=C(NCCCN1CCCCC1)c1cnn(-c2nc(-c3ccc(Cl)c(Cl)c3)cs2)c1C(F)(F)F [Example 97]
30 µM | O=C(NCCCN1CCCCC1)c1cnn(-c2nc(-c3ccccc3C(F)(F)F)cs2)c1C(F)(F)F [Example 100]

The remaining lines, values behind:

SMILES | IC50
CCN(CC)CCCNC(=O)c1cnn(-c2nc(-c3ccc(OC)cc3)cs2)c1C(F)(F)F [Example 41] | 30 µM
CCN(CC)CCCNC(=O)c1cnn(-c2nc(-c3cc(OC)c(OC)c(OC)c3)cs2)c1C(F)(F)F [Example 47] | 5.6 µM
CCN(CC)CCCCNC(=O)c1cnn(-c2nc(-c3cccc(C(F)(F)F)c3)cs2)c1C(F)(F)F [Example 52] | 6 µM
CCN(CC)CCCNC(=O)c1cnn(-c2nc(-c3ccc(C(F)(F)F)cc3)cs2)c1C(F)(F)F [Example 56] | 4 µM
O=C(NCCN1CCCCC1)c1cnn(-c2nc(-c3ccc(C(F)(F)F)cc3)cs2)c1C(F)(F)F [Example 57] | 7 µM
NCCCCCNC(=O)c1cnn(-c2nc(-c3cccc(C(F)(F)F)c3)cs2)c1C(F)(F)F [Example 61] | 11.5 µM
Cc1ccc(-c2csc(-n3ncc(C(=O)NCCCNC4CCCCC4)c3C(F)(F)F)n2)cc1 [Example 96] | 3.5 µM
Cc1cccc(-c2csc(-n3ncc(C(=O)NCCCN4CCCC4)c3C(F)(F)F)n2)c1 [Example 99] | 30 µM
O=C(NCCCN1CCCC1)c1cnn(-c2nc(-c3ccccc3C(F)(F)F)cs2)c1C(F)(F)F [Example 101] | 15 µM
O=C(NCCCN1CCCCC1)c1cnn(-c2nc(-c3cccc(Cl)c3)cs2)c1C(F)(F)F [Example 106] | 30 µM
O=C(NCCCNC1CCCCC1)c1cnn(-c2nc(-c3cccc(Cl)c3)cs2)c1C(F)(F)F [Example 107] | 5 µM
O=C(NCCCNC1CCCCC1)c1cnn(-c2nc(-c3cccc(C(F)(F)F)c3)cs2)c1-c1ccccc1 [Example 108] | 20 µM
O=C(NCCCN1CCCCCC1)c1cnn(-c2nc(-c3cccc(C(F)(F)F)c3)cs2)c1C(F)(F)F [Example 109] | 6 µM
CC(C)NCCCNC(=O)c1cnn(-c2nc(-c3cccc(C(F)(F)F)c3)cs2)c1C(F)(F)F [Example 112] | 5 µM
CN(C)C=NCCCNC(=O)c1cnn(-c2nc(-c3cccc(Cl)c3)cs2)c1C(F)(F)F [Example 132, 2-[4-(3-(N,N-Dimethylformamidinyl)propylcarbamoyl]5-(trifluoromethyl)pyrazol-1-yl]-4-(3-chlorophenyl)thiazole] | 7 µM
NCCCOCc1cnn(-c2nc(-c3cccc(C(F)(F)F)c3)cs2)c1C(F)(F)F [Example 138, 2-[4-[3-Aminopropoxymethyl]-5-(trifluoromethyl)pyrazol-1-yl]-4-(3-trifluoromethylphenyl)thiazole Hydrochloride] | 2.1 µM
CCN(CC)CCNC(=O)c1ccc(-c2csc(-c3ccc(Cl)cc3)n2)cc1 [Example 177] | 12.8 µM
